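Step 1: Grow cells in 96-well plates. Step 2: Expose to compound for 48 hours at 5 concentrations. Step 3: Interpolate endpoints linearly; if unreached, use highest concentration. The concentration for 50% growth inhibition is given as GI50.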 Activity calls are given as the source filed them. Cut-off read from the data, not from the text of the source: active = GI50 up to about 1.1 µM and inactive = higher.
Legend:
Assay in all cases: growth of human tumour cells (NCI), 48 h
RXF 393 = system: RXF 393
SNB-19 = system: SNB-19
SK-MEL-28 = system: SK-MEL-28
ACHN = system: ACHN
K562 = system: K562
Hs-578T = system: Hs-578T
HCT-116 = system: HCT-116
UACC-257 = system: UACC-257
HT-29 = system: HT-29
COLO 205 = system: COLO 205
SK-MEL-5 = system: SK-MEL-5
UO-31 = system: UO-31
LOX IMVI = system: LOX IMVI
SR = system: SR
PC-3 = system: PC-3
NCI-H226 = system: NCI-H226
MDA-N = system: MDA-N
SF-295 = system: SF-295
SW-620 = system: SW-620
DU-145 = system: DU-145
HOP-92 = system: HOP-92
CCRF-CEM = system: CCRF-CEM
HL-60 = system: HL-60
HCC 2998 = system: HCC 2998
NCI/ADR-RES = system: NCI/ADR-RES
U-251 = system: U-251
NCI-H23 = system: NCI-H23
SNB-75 = system: SNB-75
SN12C = system: SN12C
SK-OV-3 = system: SK-OV-3
A498 = system: A498
NCI-H460 = system: NCI-H460
KM12 = system: KM12
SF-268 = system: SF-268
MDA-MB-231 = system: MDA-MB-231
M14 = system: M14
OVCAR-8 = system: OVCAR-8
MCF7 = system: MCF7
HCT-15 = system: HCT-15
MDA-MB-435 = system: MDA-MB-435
OVCAR-3 = system: OVCAR-3
A549 = system: A549
TK-10 = system: TK-10
T47D = system: T47D
MOLT-4 = system: MOLT-4
NCI-H522 = system: NCI-H522
OVCAR-4 = system: OVCAR-4
786-0 = system: 786-0
SF-539 = system: SF-539
UACC-62 = system: UACC-62
HOP-62 = system: HOP-62
SK-MEL-2 = system: SK-MEL-2
IGROV-1 = system: IGROV-1
Malme-3M = system: Malme-3M
EKVX = system: EKVX
RPMI-8226 = system: RPMI-8226
CAKI-1 = system: CAKI-1
OVCAR-5 = system: OVCAR-5

Compound: COc1ccc2c(c1)/C(=C/CCN(C)C)c1ccccc1S2
- GI50 (RXF 393): 35.6 µM (inactive)
- GI50 (SNB-19): > 100 µM (inactive)
- GI50 (SK-MEL-28): 19.4 µM (inactive)
- GI50 (ACHN): > 100 µM (inactive)
- GI50 (K562): 46.1 µM (inactive)
- GI50 (Hs-578T): 33.4 µM (inactive)
- GI50 (HCT-116): 55.8 µM (inactive)
- GI50 (UACC-257): > 100 µM (inactive)
- GI50 (HT-29): 76.6 µM (inactive)
- GI50 (COLO 205): 18.8 µM (inactive)
- GI50 (SK-MEL-5): 16.2 µM (inactive)
- GI50 (UO-31): 27 µM (inactive)
- GI50 (LOX IMVI): 95.5 µM (inactive)
- GI50 (SR): 69 µM (inactive)
- GI50 (PC-3): 75.9 µM (inactive)
- GI50 (NCI-H226): > 100 µM (inactive)
- GI50 (MDA-N): 43.3 µM (inactive)
- GI50 (SF-295): > 100 µM (inactive)
- GI50 (SW-620): > 100 µM (inactive)
- GI50 (DU-145): > 100 µM (inactive)
- GI50 (HOP-92): > 100 µM (inactive)
- GI50 (CCRF-CEM): 54.6 µM (inactive)
- GI50 (HL-60): 48.5 µM (inactive)
- GI50 (HCC 2998): 44.3 µM (inactive)
- GI50 (NCI/ADR-RES): > 100 µM (inactive)
- GI50 (U-251): > 100 µM (inactive)
- GI50 (NCI-H23): > 100 µM (inactive)
- GI50 (SNB-75): 27.5 µM (inactive)
- GI50 (SN12C): > 100 µM (inactive)
- GI50 (SK-OV-3): > 100 µM (inactive)
- GI50 (A498): > 100 µM (inactive)
- GI50 (NCI-H460): > 100 µM (inactive)
- GI50 (KM12): > 100 µM (inactive)
- GI50 (SF-268): 92.9 µM (inactive)
- GI50 (MDA-MB-231): 59 µM (inactive)
- GI50 (M14): 73.8 µM (inactive)
- GI50 (OVCAR-8): > 100 µM (inactive)
- GI50 (MCF7): > 10 µM (inactive)
- GI50 (HCT-15): > 100 µM
- GI50 (MDA-MB-435): 48 µM (inactive)
- GI50 (OVCAR-3): > 100 µM (inactive)
- GI50 (A549): > 100 µM (inactive)
- GI50 (TK-10): > 100 µM (inactive)
- GI50 (T47D): > 100 µM (inactive)
- GI50 (MOLT-4): 67.1 µM (inactive)

Compound: CC1(C)CC[C@]2(C)CC=C3[C@]4(C)CC[C@H]5C(C)(C)C(=O)CC[C@]5(C)[C@H]4CC[C@@]3(C)[C@H]2C1
- GI50 (NCI-H522): > 100 µM (inactive)
- GI50 (RXF 393): > 100 µM (inactive)
- GI50 (SNB-19): > 100 µM (inactive)
- GI50 (SK-MEL-28): > 100 µM (inactive)
- GI50 (ACHN): > 100 µM (inactive)
- GI50 (Hs-578T): > 100 µM (inactive)
- GI50 (HCT-116): > 100 µM (inactive)
- GI50 (UACC-257): > 100 µM (inactive)
- GI50 (HT-29): > 100 µM (inactive)
- GI50 (COLO 205): > 100 µM (inactive)
- GI50 (SK-MEL-5): > 100 µM (inactive)
- GI50 (UO-31): > 100 µM (inactive)
- GI50 (OVCAR-4): > 100 µM (inactive)
- GI50 (LOX IMVI): > 100 µM (inactive)
- GI50 (SR): > 100 µM (inactive)
- GI50 (786-0): > 100 µM (inactive)
- GI50 (PC-3): > 100 µM (inactive)
- GI50 (SF-539): > 100 µM (inactive)
- GI50 (UACC-62): > 100 µM (inactive)
- GI50 (NCI-H226): > 100 µM (inactive)
- GI50 (MDA-N): > 100 µM (inactive)
- GI50 (HOP-62): > 100 µM (inactive)
- GI50 (SF-295): > 100 µM (inactive)
- GI50 (SW-620): > 100 µM (inactive)
- GI50 (DU-145): > 100 µM (inactive)
- GI50 (HOP-92): > 100 µM (inactive)
- GI50 (CCRF-CEM): > 100 µM (inactive)
- GI50 (HCC 2998): > 100 µM (inactive)
- GI50 (NCI/ADR-RES): > 100 µM (inactive)
- GI50 (U-251): > 100 µM (inactive)
- GI50 (NCI-H23): > 100 µM (inactive)
- GI50 (SN12C): > 100 µM (inactive)
- GI50 (SK-MEL-2): > 100 µM (inactive)
- GI50 (IGROV-1): > 100 µM (inactive)
- GI50 (SK-OV-3): > 100 µM (inactive)
- GI50 (Malme-3M): > 100 µM (inactive)
- GI50 (A498): > 100 µM (inactive)
- GI50 (KM12): > 100 µM (inactive)
- GI50 (EKVX): > 100 µM (inactive)
- GI50 (RPMI-8226): > 100 µM (inactive)
- GI50 (SF-268): > 100 µM (inactive)
- GI50 (MDA-MB-231): > 100 µM (inactive)
- GI50 (M14): > 100 µM (inactive)
- GI50 (OVCAR-8): > 100 µM (inactive)
- GI50 (CAKI-1): > 100 µM (inactive)
- GI50 (MCF7): > 100 µM (inactive)
- GI50 (HCT-15): > 100 µM
- GI50 (MDA-MB-435): > 100 µM (inactive)
- GI50 (OVCAR-3): > 100 µM (inactive)
- GI50 (A549): > 100 µM (inactive)
- GI50 (TK-10): > 100 µM (inactive)
- GI50 (T47D): > 100 µM (inactive)
- GI50 (MOLT-4): > 100 µM (inactive)
- GI50 (OVCAR-5): > 100 µM (inactive)

Compound: CCCCCCCCCCCCCC[S+](C)C
- GI50 (NCI-H522): 1.75 µM (inactive)
- GI50 (RXF 393): 1.2 µM (inactive)
- GI50 (SNB-19): 1.4 µM (inactive)
- GI50 (SK-MEL-28): 2.58 µM (inactive)
- GI50 (ACHN): 3.32 µM (inactive)
- GI50 (K562): 1.4 µM (inactive)
- GI50 (Hs-578T): 1.65 µM (inactive)
- GI50 (HCT-116): 2.51 µM (inactive)
- GI50 (UACC-257): 2.45 µM (inactive)
- GI50 (HT-29): 1.56 µM (inactive)
- GI50 (COLO 205): 1.62 µM (inactive)
- GI50 (SK-MEL-5): 1.53 µM (inactive)
- GI50 (UO-31): 3.07 µM (inactive)
- GI50 (OVCAR-4): 2.4 µM (inactive)
- GI50 (LOX IMVI): 1.79 µM (inactive)
- GI50 (SR): 0.538 µM (active)
- GI50 (786-0): 1.33 µM (inactive)
- GI50 (PC-3): 1.24 µM (inactive)
- GI50 (SF-539): 1.27 µM (inactive)
- GI50 (UACC-62): 2.22 µM (inactive)
- GI50 (NCI-H226): 1.99 µM (inactive)
- GI50 (MDA-N): 2.08 µM (inactive)
- GI50 (HOP-62): 1.67 µM (inactive)
- GI50 (SF-295): 3.33 µM (inactive)
- GI50 (SW-620): 2.33 µM (inactive)
- GI50 (DU-145): 3.8 µM (inactive)
- GI50 (HOP-92): 1.18 µM (inactive)
- GI50 (CCRF-CEM): 1.23 µM (inactive)
- GI50 (HL-60): 1.03 µM (active)
- GI50 (HCC 2998): 1.66 µM (inactive)
- GI50 (NCI/ADR-RES): > 10 µM (inactive)
- GI50 (U-251): 1.09 µM (active)
- GI50 (NCI-H23): 1.5 µM (inactive)
- GI50 (SNB-75): 1.58 µM (inactive)
- GI50 (SN12C): 1.59 µM (inactive)
- GI50 (SK-MEL-2): 2.02 µM (inactive)
- GI50 (IGROV-1): 1.12 µM (inactive)
- GI50 (SK-OV-3): 4.02 µM (inactive)
- GI50 (NCI-H460): 2.11 µM (inactive)
- GI50 (KM12): 1.57 µM (inactive)
- GI50 (EKVX): 3.01 µM (inactive)
- GI50 (RPMI-8226): 0.601 µM (active)
- GI50 (SF-268): 1.51 µM (inactive)
- GI50 (MDA-MB-231): 2.23 µM (inactive)
- GI50 (M14): 1.83 µM (inactive)
- GI50 (OVCAR-8): 1.77 µM (inactive)
- GI50 (CAKI-1): 2.61 µM (inactive)
- GI50 (MCF7): 1.67 µM (inactive)
- GI50 (HCT-15): 3.93 µM
- GI50 (MDA-MB-435): 1.91 µM (inactive)
- GI50 (OVCAR-3): 1.48 µM (inactive)
- GI50 (A549): 1.68 µM (inactive)
- GI50 (TK-10): 1.71 µM (inactive)
- GI50 (T47D): 2.1 µM (inactive)
- GI50 (MOLT-4): 1.23 µM (inactive)
- GI50 (OVCAR-5): 2.88 µM (inactive)
